According to patent US5028593A, “Tuftsin analogs” (Board of Regents, The University of Texas System, priority 1989, dated 1991):
Residues, ends and D or L forms follow the SMILES beside them.

Key:
K-562 tumor target cells = experiment: Tumor cell cytotoxicity assay by human natural killer (NK) cells (51Cr release); format: cell-based; conditions: compared to tuftsin; NK cells activated 1 hour with 10 μg peptide per ml; 4 hour 51Cr release, K-562 targets
Description: A leukocyte-rich buffy coat preparation obtained from leukophoresis of a normal volunteer is used. Buffy coat is diluted with HBSS, layered over LSM, and centrifuged. The mononuclear cells at interphase are collected, washed with HBSS, suspended in RPMI-1640 medium with 10% FBS, adjusted to 5×10^6 /l ml, plated on Petri dishes (10 ml each), and incubated for 1 hour. Non-adherent cells are collected, poured into bottles containing nylon wool wet with HBSS, and kept in the incubator for 1 hour. Non-adherent cells are collected, suspended in RPMI-1640 medium with 10% FBS, adjusted to 2×10^7 /ml, mixed (1:1 volume ratio) with sheep red blood cells (6×10^8 /ml), placed in 29° C. bath for 15 min., centrifuged, and again placed in 29° C. bath for another hour. Cell clumps are gently broken up, layered over LSM, and centrifuged. […]
The viability of this NK cell enriched fraction is assessed with trypan blue, and washed with RPMI-1640 medium with 5% FBS. […] Filters containing radioactive supernatants are counted on a γ counter and counts per minutes (cpm) are recorded. Percent cytotoxicity (% specific lysis) is calculated by the following formula: [formula] […] Maximum cpm is obtained by releasing the radioactivity from the target cells by treatment with Triton X-100.

[1] = test system: Human polymorphonuclear leukocytes (PMN); experiment: Phagocytosis assay; format: cell-based; conditions: compared to tuftsin; statistically significant differences at peptide concentrations of 0.1, 1.0 and 10 μg/ml; fluorescent microspheres, 15 min
Description: Human polymorphonuclear leukocytes (PMN) are prepared from venous blood of healthy donors. Heparinized blood is mixed with dextran and kept at 37° C. for 1 hour. The leukocyte-rich plasma is collected and centrifuged. The resulting pellet is washed with Hank's balanced salt solution (HBSS). The pellet is then suspended into HBSS, layered over Lymphocyte Separation Medium (LSM) and centrifuged. The sedimented cells are washed with HBSS. Contaminant erythrocytes are lysed by suspending the cells in sterile water for 15 seconds. The isotonicity is then restored by adding 10XHBSS. After centrifuging, the PMN are washed with HBSS, suspended in the same medium, counted, and adjusted to 1×10^6 viable cells/ml (viability>95% by trypan blue dye exclusion). Cells (0.5×10^6 cells/well) are plated in 24 well plate and placed in a 37° C. CO2 incubator for 30 min. to form a monolayer. Thereafter the supernatant is aspirated. Tuftsin or analog in 250 μl HBSS and 1.25×10^7 fluorescent microspheres (2 μm diameter) in 250 μl HBSS, are added to each well resulting in a particle to PMN ratio of 25:1, mixed, and incubated for 15 min. The supernatant is then quickly aspirated and each well washed with HBSS. […] After 10 min, % phagocytosis (% of PMN containing one or more particles) is counted under a microscope. […]

Splenocytes = experiment: Thymidine incorporation assay (growth stimulation); format: cell-based, C57BL/6 female mouse; conditions: compared to tuftsin; peptide 10 μg/ml; adherent and non-adherent splenocytes; 3H-thymidine
Description: Spleen is obtained from C57BL/6 female mouse (approximately 3 months old). Splenocytes are prepared by teasing the spleen and passing them through a sieving screen. These cells in HBSS with 2% FBS are then layered over LSM and centrifuged. The cells at interphase are collected, washed with RPMI-1640 medium with 2% FBS, suspended in the same medium at 1×10^6 cells/ml, and plated into wells (1×10^6 cells per well). The plate is incubated for 45 min. in the incubator. Non-adherent cells in each well are transferred to a new well. Adherent cells and non-adherent cells are incubated in separate wells with peptide (10 μg/ml) for 6 hours in 1 ml RPMI-1640 medium with 2% FBS. ^3 H-thymidine (0.1 μCi per well) is then introduced. The plate is kept in the incubator for another 18 hours. Each well is washed and cells are collected into a tube using 1 ml of cold HBSS. After washing the cells twice, the cells are counted, mixed with 0.2 ml of 0.1% sodium dodecyl sulfate, and transferred to a liquid scintillation vial for determination of radioactivity.

CC(C)C[C@H](NC(=O)[C@H](CCCCN)NC(=O)[C@@H](N)[C@@H](C)O)C(=O)N[C@@H](CCCCN)C(=O)O [tuftsin analog, L-Thr-L-Lys-L-Leu-L-Lys] (H-TKLK-OH)
tumor cell cytotoxicity enhancement of human NK cells (K-562 tumor target cells): significantly greater tumor cell cytotoxicity enhancement of human NK cells
stimulation of phagocytosis (% phagocytosis) [1]: significantly greater stimulation of phagocytosis at lower concentrations compared to tuftsin itself
stimulating thymidine incorporation (growth stimulation) (Splenocytes): significantly greater activity in stimulating thymidine incorporation (growth stimulation) than did tuftsin
